Test: TCEP stability in phosphate buffer by 31P NMR
Type: physicochemical
Details: 50 mM phosphate buffer, room temperature, over 14 days
Procedure: Due to the acidic nature of TCEP, to avoid any pH shift, a phosphate buffer (50 mM, pH 7) was used to sustain near‐physiological pH. The groups of Han39 and Whitesides37 described the chemical instability of TCEP above pH 7 in 300–400 mM phosphate buffer.
NMR spectroscopy: All ^1H NMR spectroscopy experiments were performed on a Bruker Avance III 700 MHz spectrometer equipped with a z‐gradient 5 mm probe head operating at 700.13 MHz for ^1H, whereas ^31P NMR spectroscopy experiments were performed on a Bruker Avance 250 spectrometer with a 5 mm SB quad probe head.

- TCEP oxidation or degradation: no significant spectral changes
Compound: O=C(O)CCP(CCC(=O)O)CCC(=O)O [TCEP, tris(2‐carboxyethyl)phosphine]
